Laboratory results as given in BindingDB's records for patent US11117900 (Vertex Pharmaceuticals, 2021).

Target: Serine/threonine-protein kinase ATR (Homo sapiens, UniProt Q13535)
Assay: Inhibition Assay
Protocol: Compounds were screened for their ability to inhibit ATR kinase using a radioactive-phosphate incorporation assay. Assays were carried out in a mixture of 50 mM Tris/HCl (pH 7.5), 10 mM MgCl2 and 1 mM DTT. Final substrate concentrations were 10 μM [γ-33P]ATP (3 mCi 33P ATP/mmol ATP, Perkin Elmer) and 800 μM target peptide ([…]) (SEQ ID NO:1).Assays were carried out at 25° C. in the presence of 5 nM full-length ATR. An assay stock buffer solution was prepared containing all of the reagents listed above, with the exception of ATP and the test compound of interest. 13.5 μL of the stock solution was placed in a 96 well plate followed by addition of 2 μL of DMSO stock containing serial dilutions of the test compound (typically starting from a final concentration of 15 μM with 3-fold serial dilutions) in duplicate (final DMSO concentration 7%). The plate was pre-incubated for 10 minutes at 25° C. and the reaction initiated by addition of 15 μL [γ-33P]ATP (final concentration 10 μM).The reaction was stopped after 24 hours by the addition of […] containing 2 mM ATP. A multiscreen phosphocellulose filter 96-well plate (Millipore, Cat no. MAPHNOB50) was pretreated with 100 μL 0.2M phosphoric acid prior to the addition of […] of the stopped assay mixture. The plate was washed with 5×2004 0.2M phosphoric acid. […]

Chain of Serine/threonine-protein kinase ATR (Q13535 whole entry): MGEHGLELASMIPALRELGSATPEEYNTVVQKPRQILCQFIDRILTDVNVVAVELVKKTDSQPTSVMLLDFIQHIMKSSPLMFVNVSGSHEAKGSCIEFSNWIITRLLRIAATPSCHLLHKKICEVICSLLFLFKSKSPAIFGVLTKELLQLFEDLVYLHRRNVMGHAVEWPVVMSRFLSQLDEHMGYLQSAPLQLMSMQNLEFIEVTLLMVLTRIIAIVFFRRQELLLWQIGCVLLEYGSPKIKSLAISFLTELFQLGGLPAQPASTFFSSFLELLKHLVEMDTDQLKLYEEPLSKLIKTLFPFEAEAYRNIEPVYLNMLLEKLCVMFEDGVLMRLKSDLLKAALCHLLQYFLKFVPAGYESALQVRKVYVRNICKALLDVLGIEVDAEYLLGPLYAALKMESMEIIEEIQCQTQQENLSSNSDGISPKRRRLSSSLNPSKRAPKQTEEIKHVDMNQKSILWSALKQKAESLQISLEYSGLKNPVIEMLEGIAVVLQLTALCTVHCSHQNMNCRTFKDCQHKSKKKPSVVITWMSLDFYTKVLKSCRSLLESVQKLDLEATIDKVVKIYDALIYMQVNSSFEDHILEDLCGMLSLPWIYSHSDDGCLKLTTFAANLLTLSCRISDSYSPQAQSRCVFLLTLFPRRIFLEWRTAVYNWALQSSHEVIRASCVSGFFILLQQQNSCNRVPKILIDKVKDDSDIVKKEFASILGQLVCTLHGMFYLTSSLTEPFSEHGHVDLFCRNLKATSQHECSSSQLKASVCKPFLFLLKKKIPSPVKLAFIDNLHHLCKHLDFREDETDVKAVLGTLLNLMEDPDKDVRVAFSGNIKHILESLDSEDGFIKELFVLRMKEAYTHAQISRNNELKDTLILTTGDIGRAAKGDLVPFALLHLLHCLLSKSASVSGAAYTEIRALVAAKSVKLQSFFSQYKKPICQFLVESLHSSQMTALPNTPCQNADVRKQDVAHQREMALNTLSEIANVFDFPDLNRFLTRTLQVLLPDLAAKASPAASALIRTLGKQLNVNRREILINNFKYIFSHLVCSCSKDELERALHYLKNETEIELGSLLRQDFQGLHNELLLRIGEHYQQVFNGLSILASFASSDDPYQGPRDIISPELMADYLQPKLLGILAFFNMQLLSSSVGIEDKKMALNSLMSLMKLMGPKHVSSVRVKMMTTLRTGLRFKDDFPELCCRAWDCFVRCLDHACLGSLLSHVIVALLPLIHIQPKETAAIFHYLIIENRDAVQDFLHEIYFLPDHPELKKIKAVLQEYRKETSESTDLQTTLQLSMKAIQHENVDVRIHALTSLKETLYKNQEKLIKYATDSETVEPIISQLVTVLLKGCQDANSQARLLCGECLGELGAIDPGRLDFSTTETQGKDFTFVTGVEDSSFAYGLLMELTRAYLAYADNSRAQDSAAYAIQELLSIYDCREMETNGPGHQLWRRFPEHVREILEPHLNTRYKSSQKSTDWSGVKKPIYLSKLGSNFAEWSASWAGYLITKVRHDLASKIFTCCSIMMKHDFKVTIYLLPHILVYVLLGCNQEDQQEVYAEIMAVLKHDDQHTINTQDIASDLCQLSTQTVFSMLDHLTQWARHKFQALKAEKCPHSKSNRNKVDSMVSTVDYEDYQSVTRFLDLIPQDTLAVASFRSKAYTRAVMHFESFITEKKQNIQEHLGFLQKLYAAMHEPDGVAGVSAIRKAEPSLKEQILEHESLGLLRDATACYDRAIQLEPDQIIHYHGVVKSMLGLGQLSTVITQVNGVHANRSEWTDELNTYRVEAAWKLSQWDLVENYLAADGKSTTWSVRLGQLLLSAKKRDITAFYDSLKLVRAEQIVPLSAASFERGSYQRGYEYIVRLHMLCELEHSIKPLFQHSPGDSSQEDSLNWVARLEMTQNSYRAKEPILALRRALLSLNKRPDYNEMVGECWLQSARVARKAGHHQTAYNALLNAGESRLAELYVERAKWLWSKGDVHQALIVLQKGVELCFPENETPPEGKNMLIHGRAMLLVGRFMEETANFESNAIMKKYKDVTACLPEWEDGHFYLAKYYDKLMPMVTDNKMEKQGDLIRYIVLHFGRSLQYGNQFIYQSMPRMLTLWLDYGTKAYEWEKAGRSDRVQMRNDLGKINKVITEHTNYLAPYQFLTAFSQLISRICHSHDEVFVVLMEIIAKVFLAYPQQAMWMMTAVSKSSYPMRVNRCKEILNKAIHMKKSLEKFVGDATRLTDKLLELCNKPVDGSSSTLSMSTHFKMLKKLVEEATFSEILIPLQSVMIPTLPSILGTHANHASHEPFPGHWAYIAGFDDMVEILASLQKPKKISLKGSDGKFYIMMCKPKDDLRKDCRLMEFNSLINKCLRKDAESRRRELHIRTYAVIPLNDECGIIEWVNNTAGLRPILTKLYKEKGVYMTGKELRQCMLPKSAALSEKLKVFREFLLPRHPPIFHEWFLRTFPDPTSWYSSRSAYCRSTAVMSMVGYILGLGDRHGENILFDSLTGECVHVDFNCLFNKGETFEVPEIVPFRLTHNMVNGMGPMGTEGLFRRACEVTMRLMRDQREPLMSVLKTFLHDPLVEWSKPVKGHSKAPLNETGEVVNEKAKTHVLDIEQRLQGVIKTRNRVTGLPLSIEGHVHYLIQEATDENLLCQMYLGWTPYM

- Ki: in the range around 505 nM
Compound: C[N+]1([O-])CCCC(c2ccncc2NC(=O)c2c(N)nn3cc(F)cnc23)C1 (stereo unspecified) [US11117900, Compound I-C-9]
